Laboratory results: patent US10561716B2, “Prostate cancer vaccine” (Wisconsin Alumni Research Foundation, priority 2006, dated 2020)
“Also recorded” adds a separate entry of the source.

What was measured:
peptide-loaded T2 cells = assay: Cytotoxicity assay (LDH) of peptide-specific patient T-cell cultures against peptide-loaded T2 cells; assay type: cell-based, human; settings: for Peptide-specific lysis (Number of patients): patients of eleven HLA-A2-expressing prostate cancer patients with peptide-specific T cells after 2-4 in vitro stimulations; for Peptide-specific lysis of T2 cells by peptide-specific T-cells (FIG. 6): patient T-cell lines, three effector-to-target ratios
Experimental: (§1) Human prostate cancer patients underwent leukapheresis, and PBMCs were isolated using a Ficoll-Paque gradient (Pharmacia, Kirkland, Quebec). Immature dendritic cells (iDCs) were generated by incubating flask-adherent PBMCs with 20 ng/mL granulocyte-macrophage colony stimulating factor and 10 ng/mL interleukin four (IL-4) for six days at 37° C./5% CO2 (cytokines from: Fitzgerald Industries, Concord, Mass.). These iDCs were then treated with 150 ng/mL IL-6, 10 ng/mL IL-1β, 10 ng/mL tumor necrosis factor alpha (TNF-α), and […] prostaglandin E2 (Fitzgerald Industries) to generate mature dendritic cells (mDCs). These mDCs were then pulsed with 20 μg/mL AR LBD-derived peptide, and after being irradiated were co-incubated with CD4+ and CD8+ T-cells negatively isolated from autologous PBMCs (Invitrogen, Carlsbad, Calif.). After incubating for 24 hours, these cultures were then treated with 10 U/mL IL-2 and 30 U/mL IL-7 (Fitzgerald Industries), and incubated for another 6 days. These cultured T-cells were re-stimulated weekly using peptide-pulsed antigen presenting cells (either mDCs or the TK6 lymphoma cell line).
(§2) T-cell cultures that underwent at least two stimulations (or splenocyte cultures that had undergone one stimulation) were collected and incubated for four hours with target cells (either T2 cells pulsed for two hours with a specific or non-specific peptide, the LNCaP prostate cancer cell line, or media alone) at various effector-to-target ratios. After incubation, supernatants were collected and levels of lactate dehydrogenase were measured using the CytoTox 96 Non-Radioactive Assay (Promega). The relative percentage of peptide-specific lysis was quantitated using the following equation: […]
(§3) To characterize CD8+ T-cell responses to the AR LBD, the amino acid sequence of the AR LBD was evaluated for potential HLA-A2-binding epitopes that fit the consensus peptide binding sequence of X-L/M-X-X-X-V-X-X-V/L (SEQ ID NO:8), using the algorithm of Parker and colleagues (Parker K C et al., 1994, J. Immunol. 152:163-175). […] These peptides were synthesized and then characterized for their affinity for HLA-A2 in vitro using T2 binding assays. […] Peptide-specific T-cell lines were then cultured from the peripheral blood of 11 HLA-A2^+ patients with prostate cancer, using each of these peptides, and then tested for their cytolytic activity against both peptide-pulsed HLA-A2-expressing target cells and the HLA-A2^+ LNCaP prostate cancer cell line. Specifically, naive T cells were isolated by magnetic negative selection (Dynal) from the peripheral blood mononuclear cells (PBMCs) of HLA-A2-expressing prostate cancer patients, and cultured in the presence of autologous cytokine-matured irradiated dendritic cells (mDC) that had been loaded with individual peptides. These cultures received interleukin 2 (IL-2) and IL-7 the day after the culture, and were re-stimulated weekly with peptide-pulsed mDCs. Beginning after two weeks of stimulation, the T-cell cultures were tested weekly for their cytolytic activity using peptide-loaded T2 cells as target cells. Peptide-specific T-cells could be cultured from the majority of patients to at least one of these peptides, and peptide-specific T-cell lines could be cultured from the majority (7/11) of HLA-A2-expressing patients against the AR811 peptide in particular (Table 2).
(§4) Table 2. Compiled results of T cell culturing and cytotoxicity assays. Shown in this table are the results obtained from cytotoxicity assays of T cell cultures from eleven HLA-A2-expressing patients with prostate cancer. In the second column is the number of patients for which peptide-specific T cells could be identified following 2-4 in vitro stimulations.

[1] = test system: HLA-A2+ LNCaP prostate cancer cell line; assay: Cytotoxicity assay (LDH) of peptide-specific patient T-cell cultures against LNCaP; assay type: cell-based, human; design: key to Prostate cancer cell lysis: +: positive lysis; −: no lysis; +/−: inconclusive; settings: for Prostate cancer cell lysis: peptide-specific T cells against HLA-A2+ LNCaP; for Lysis of the LNCaP cell line by peptide-specific T-cells (FIG. 6): patient T-cell lines, three effector-to-target ratios
Experimental: as §1, §2, §3, §4

IFNγ and TNFα = assay: Intracellular cytokine staining of AR811-specific T-cell clone; assay type: cell-based, human; settings: clone restimulated with peptide, gated on CD3+/CD8+ cells
Experimental: A clonal T-cell line specific for the AR811 peptide was derived by limited dilution following multiple restimulations in vitro. This line was restimulated for 5 hours in vitro with T2 cells and media only (panel A), an irrelevant peptide (panel B), AR811 peptide (panel C), or PMA/Ionomycin (panel D). IFNγ and TNFα cytokine accumulation were assessed by intracellular flow cytometric analysis (Cytofix/cytoperm kit, BD Pharmingen). Cells were first stained for CD3 and CD8 expression and CD3+/CD8+ cells were analyzed for IFNγ and TNFα expression. Shown are the plots gated on CD3+/CD8+ cells.
After T-cell cultures containing AR LBD peptide-specific T-cells were identified, peptide-specific T-cell clones were isolated using limited-dilution cloning. Briefly, cultured T-cells were diluted to 400 cells/mL, and were diluted at a 1:1 ratio down the rows of a 96-well plate. These T-cells were mixed with 2×10^5 autologous PBMCs, as well as an anti-CD3 antibody (Clone UCHT1, BD Biosciences, 120 ng/mL) and IL-2 (Fitzgerald Industries, 200 U/mL), and were incubated at 37° C./5% CO2 for 12-14 days. Cultures generated from a single cell were identified, and their peptide-specificity was analyzed using a mini-cytotoxicity assay (as above). […] After three additional days, expanded T-cell clones were analyzed for cytotoxicity against peptide-specific or non-specific T2-pulsed cells (as described above). […]

[2] = test system: prostate cancer cell lines (LNCaP, MDA-Pca-2B, DU145); assay: Cytotoxicity of AR811 CD8+ T-cell clone against prostate cancer cell lines, with HLA-A2 blocking antibody; assay type: cell-based, human; settings: HLA-A2-negative DU145
Experimental: In addition, lysis was evaluated following pre-treatment of LNCaP with an HLA-A2 blocking monoclonal antibody (starburst). Shown is a cytotoxicity assay of an AR811 CD8+ cell clone. Cells were restimulated for seven days using peptide-pulsed antigen presenting cells, followed on day seven by a rest period of three days before they were analyzed for their cytotoxic activity.
To conduct a mini-cytotoxicity assay of limited-dilution clones, 50 μl (¼) of the cultured clones were incubated for four hours with either T2 cells pulsed with the specific peptide, a non-specific peptide, or media alone. For the subsequent characterization of CTL clone cytotoxicity against prostate cancer cells, cryopreserved CTL clones were thawed, washed 3 times, and restimulated by incubating the clones with peptide-pulsed irradiated TK6 cells for 7 days. These clones were then resuspended in 10 U/mL IL-2, and allowed to incubate for three days at 37° C./5% CO2. They were then analyzed for cytotoxicity (as described above) against four prostate cancer cell lines: LNCaP, DU145, LAPC4, and MDAPCa-2b cell lines. To characterize HLA-A2-restriction of observed cytotoxicity, a HLA-A2 antibody was added to the reaction (Clone BB7.2, BD Biosciences, 1 μg/mL).

[3] = test system: T2 cells pulsed with the AR811 peptide; assay: Immunization of HLA-A2/DR1 (HHD-II) mice with peptide, splenocyte CTL assay; assay type: in vivo; settings: once 100 μg peptide in CFA, splenocytes after one week

Row | Sequence | Peptide-specific lysis (Number of patients) (peptide-loaded T2 cells) | Prostate cancer cell lysis [1] | Peptide-specific lysis of T2 cells by peptide-specific T-cells (FIG. 6) (peptide-loaded T2 cells) | Lysis of the LNCaP cell line by peptide-specific T-cells (FIG. 6) [1] | IFNγ and TNFα secretion of peptide-specific T-cell clone (FIG. 7) (IFNγ and TNFα) | Lysis of prostate cancer cells by AR811 T-cell clone, HLA-A2 restriction (FIG. 8) [2] | Peptide-specific CTL after immunization (FIG. 9) [3]
1 | LGERQLVHVV [AR708] | 1/11 | − |  |  |  |  | 
2 | FLCMKALLL [AR805] | 3/11 | +/− |  |  |  |  | 
3 | WMGLMVFAM [AR742] | 2/11 | − |  |  |  |  | 
4 | RMLYFAPDLV [AR761] | 6/11 | +/− |  |  |  |  | 
5 | FSIIPVDGL [AR814] | 3/11 | − |  |  |  |  | 
6 | VLEAIEPGV [AR677] | 2/11 | − |  |  |  |  | 
7 | LLLFSIIPV [AR811] | 7/11 | + | lyse T2 cells in a peptide-specific fashion | could lyse the LNCaP cell line | secrete both IFNγ and TNFα in response to peptide stimulation; also recorded: secretes IFNγ and TNFα in response to peptide stimulation | lysed prostate cancer cells in an MHC class I-restricted fashion; also recorded: naturally processed HLA-A2-restricted T-cell epitope | AR811 peptide-specific CTL could be identified after immunization; also recorded: develop peptide-specific CTL
8 | ALLSSLNEL [AR700] | 1/11 | − |  |  |  |  | 
9 | QLTKLLDSV [AR859] | 2/11 | +/− | showed peptide-specific lysis | did not lyse the LNCaP cell line |  |  | 
10 | KLLDSVQPI [AR862] | 5/11 | − |  |  |  |  | 
